Test results taken from US20220023258A1, “METHODS OF TREATING CONDITIONS RELATED TO THE S1P1 RECEPTOR” (Arena Pharmaceuticals, Inc., priority 2018, published 2022).
Structures can show the parent of a compound that is named as a salt.

Experiments:
[1] = test system: patients with ulcerative colitis; assay: Fecal calprotectin and C-reactive protein in ulcerative colitis study; type: in vivo, human
Experimental: The modified Mayo Clinic score (modified MCS) included endoscopic, rectal bleeding (RB), and stool frequency (SF) subscores. […] Endoscopic improvement was defined as a subscore ≤1. […] Comparisons between subgroups were assessed with a Wilcoxon rank-sum test (2-sided P values). Analysis of correlation between variables was conducted using the Spearman's rank coefficient (2-sided P values).

healthy adult subjects = assay: Multiple ascending dose study: heart rate, blood pressure, QTc; type: in vivo, human; conditions: for Maximum post-dose QTc, Change from Baseline Mean / Maximum post-dose QTc, Change from Baseline Median / Maximum post-dose QTc, Change from Baseline Min, Max / Maximum post-dose QTc, On Treatment Mean (SD): Day 1 to Day 23; for Minimum post-dose Diastolic BP, Change from Baseline Mean / Minimum post-dose Diastolic BP, Change from Baseline Median / Minimum post-dose Diastolic BP, Change from Baseline Min, Max / Minimum post-dose Diastolic BP, On Treatment Mean (SD) / Minimum post-dose Heart Rate, Change from Baseline Mean / Minimum post-dose Heart Rate, Change from Baseline Median / Minimum post-dose Heart Rate, Change from Baseline Min, Max / Minimum post-dose Heart Rate, On Treatment Mean (SD) / Minimum post-dose Systolic BP, Change from Baseline Mean / Minimum post-dose Systolic BP, Change from Baseline Median / Minimum post-dose Systolic BP, Change from Baseline Min, Max / Minimum post-dose Systolic BP, On Treatment Mean: Day 1 to Day 28
Experimental: A randomized, double-blind, placebo-controlled, sequential, ascending, multiple dose study to assess the safety, tolerability, and pharmacokinetics of the L-arginine salt of Compound 1 administered to healthy adult subjects was conducted. This study was designed to evaluate the safety, tolerability, pharmacokinetics, and pharmacodynamics of the L-arginine salt of Compound 1.
Cohort 1 was dosed with 0.7 mg (by administering two 0.35 mg formulations) for 21 days. Cohort 2 was dosed with 1.35 mg (by administering both a 0.35 mg formulation and a 1 mg formulation) for 21 days. Cohort 3 was dosed with 2.0 mg for 21 days. Cohort 4 was dosed with 0.35 mg for 7 days and then with 2.0 mg for 14 days. Cohort 5 was dosed with 0.5 for 7 days and then with 3.0 mg (by administering both a 1 mg formulation and a 2 mg formulation) for 14 days.
The following safety assessments were conducted: physical examinations with ophthalmoscopy, clinical laboratory tests (serum chemistry, coagulation, and urinalysis), vital signs, continuous telemetry (12 lead ECG), safety ECGs, pulmonary function testing (PFT), serum protein electrophoresis (SPEP) and serum immunoelectrophoresis (IEP), and adverse event reporting.

[2] = 0.35 mg for 7 days then 2.0 mg for 14 days
[3] = 0.5 mg for 7 days then 3.0 mg for 14 days

With `O=C(O)C[C@H]1CCc2c1[nH]c1ccc(OCc3ccc(C4CCCC4)c(C(F)(F)F)c3)cc21` [L-arginine salt of Compound 1] the “decrease in FC versus placebo across the study” value ([1]; 1 mg, did not reach statistical significance, P=0.08) was 0.71, the “decrease in CRP compared with placebo across the study” value ([1]; 1 mg, mixed-model for repeat measures, P=0.02) was 0.72 and the “median FC at week 12, patients who did not achieve remission” value ([1]; 2 mg) was 1129 µg/g. The “median FC at week 12, patients who achieved remission” value ([1]; 2 mg, P<0.001 vs no remission) was 62.0 µg/g, the “decrease in FC compared with placebo across the study” value ([1]; 2 mg, mixed-model for repeat measures, P<0.001) was 0.42 and the “decrease in CRP compared with placebo across the study” value ([1]; 2 mg, mixed-model for repeat measures, P=0.01) was 0.70. For the same compound, the “time at which decreases in FC and CRP levels versus placebo were first observed” value ([1]; 2 mg, sustained through week 12) was 4 week, the “Maximum post-dose QTc, Change from Baseline Mean” value (healthy adult subjects; [2]) was −0.10 MS and the “Maximum post-dose QTc, Change from Baseline Median” value (healthy adult subjects; [2]) was 0.50 MS. The “Maximum post-dose QTc, Change from Baseline Min, Max” value (healthy adult subjects; [2]) was −19.00 to 17.00 MS, the “Maximum post-dose QTc, On Treatment Mean (SD)” value (“Maximum post-dose QTc … (SD)” for short) (healthy adult subjects; [2]) was 411.10 (19.88) MS and the “Maximum post-dose QTc, Change from Baseline Mean” value (healthy adult subjects; [3]) was 5.60 MS. For the same compound, the “Maximum post-dose QTc, Change from Baseline Median” value (healthy adult subjects; [3]) was 5.00 MS, the “Maximum post-dose QTc, Change from Baseline Min, Max” value (healthy adult subjects; [3]) was −5.00 to 15.00 MS and the “Maximum post-dose QTc … (SD)” value (healthy adult subjects; [3]) was 425.10 (13.90) MS. The “Maximum post-dose QTc, Change from Baseline Mean” value (healthy adult subjects; 0.7 mg for 21 days) was 3.60 MS, the “Maximum post-dose QTc, Change from Baseline Median” value (healthy adult subjects; 0.7 mg for 21 days) was 3.50 MS and the “Maximum post-dose QTc, Change from Baseline Min, Max” value (healthy adult subjects; 0.7 mg for 21 days) was −8.00 to 16.00 MS. For the same compound, the “Maximum post-dose QTc … (SD)” value (healthy adult subjects; 0.7 mg for 21 days) was 418.40 (16.56) MS, the “Maximum post-dose QTc, Change from Baseline Mean” value (healthy adult subjects; 1.35 mg for 21 days) was 8.20 MS and the “Maximum post-dose QTc, Change from Baseline Median” value (healthy adult subjects; 1.35 mg for 21 days) was 6.00 MS. For the same compound, the “Maximum post-dose QTc, Change from Baseline Min, Max” value (healthy adult subjects; 1.35 mg for 21 days) was −5.00 to 25.00 MS, the “Maximum post-dose QTc … (SD)” value (healthy adult subjects; 1.35 mg for 21 days) was 423.60 (16.14) MS and the “Maximum post-dose QTc, Change from Baseline Mean” value (healthy adult subjects; 2.0 mg for 21 days) was 4.00 MS. The “Maximum post-dose QTc, Change from Baseline Median” value (healthy adult subjects; 2.0 mg for 21 days) was 4.50 MS, the “Maximum post-dose QTc, Change from Baseline Min, Max” value (healthy adult subjects; 2.0 mg for 21 days) was −8.00 to 13.00 MS and the “Maximum post-dose QTc … (SD)” value (healthy adult subjects; 2.0 mg for 21 days) was 421.20 (10.61) MS. The “Minimum post-dose Diastolic BP, Change from Baseline Mean” value (healthy adult subjects; [2]) was −7.90 mmHg, the “Minimum post-dose Diastolic BP, Change from Baseline Median” value (healthy adult subjects; [2]) was −6.00 mmHg and the “Minimum post-dose Diastolic BP, Change from Baseline Min, Max” value (healthy adult subjects; [2]) was −19.00 to −1.00 mmHg. The “Minimum post-dose Diastolic BP, On Treatment Mean (SD)” value (shortened to “Minimum post-dose Diastolic BP … (SD)”) (healthy adult subjects; [2]) was 50.80 (5.65) mmHg, the “Minimum post-dose Heart Rate, Change from Baseline Mean” value (healthy adult subjects; [2]) was −10.60 BPM and the “Minimum post-dose Heart Rate, Change from Baseline Median” value (healthy adult subjects; [2]) was −7.00 BPM. For the same compound, the “Minimum post-dose Heart Rate, Change from Baseline Min, Max” value (healthy adult subjects; [2]) was −35.00 to 3.00 BPM, the “Minimum post-dose Heart Rate, On Treatment Mean (SD)” value (“Minimum post-dose Heart Rate … (SD)” for short) (healthy adult subjects; [2]) was 52.00 (4.74) BPM and the “Minimum post-dose Systolic BP, Change from Baseline Mean” value (healthy adult subjects; [2]) was −13.00 mmHg. The “Minimum post-dose Systolic BP, Change from Baseline Median” value (healthy adult subjects; [2]) was −13.00 mmHg, the “Minimum post-dose Systolic BP, Change from Baseline Min, Max” value (healthy adult subjects; [2]) was −28.00 to 0.00 mmHg and the “Minimum post-dose Systolic BP, On Treatment Mean” value (healthy adult subjects; [2]) was 94.30 mmHg. For the same compound, the “Minimum post-dose Diastolic BP, Change from Baseline Mean” value (healthy adult subjects; [3]) was −6.30 mmHg, the “Minimum post-dose Diastolic BP, Change from Baseline Median” value (healthy adult subjects; [3]) was −7.00 mmHg and the “Minimum post-dose Diastolic BP, Change from Baseline Min, Max” value (healthy adult subjects; [3]) was −13.00 to 3.00 mmHg. The “Minimum post-dose Diastolic BP … (SD)” value (healthy adult subjects; [3]) was 50.20 (4.21) mmHg, the “Minimum post-dose Heart Rate, Change from Baseline Mean” value (healthy adult subjects; [3]) was −7.30 BPM and the “Minimum post-dose Heart Rate, Change from Baseline Median” value (healthy adult subjects; [3]) was −6.50 BPM. The “Minimum post-dose Heart Rate, Change from Baseline Min, Max” value (healthy adult subjects; [3]) was −14.00 to −2.00 BPM, the “Minimum post-dose Heart Rate … (SD)” value (healthy adult subjects; [3]) was 53.80 (4.73) BPM and the “Minimum post-dose Systolic BP, Change from Baseline Mean” value (healthy adult subjects; [3]) was −7.80 mmHg. The “Minimum post-dose Systolic BP, Change from Baseline Median” value (healthy adult subjects; [3]) was −5.00 mmHg, the “Minimum post-dose Systolic BP, Change from Baseline Min, Max” value (healthy adult subjects; [3]) was −18.00 to 5.00 mmHg and the “Minimum post-dose Systolic BP, On Treatment Mean” value (healthy adult subjects; [3]) was 93.20 mmHg. The “Minimum post-dose Diastolic BP, Change from Baseline Mean” value (healthy adult subjects; 0.7 mg for 21 days) was −6.10 mmHg, the “Minimum post-dose Diastolic BP, Change from Baseline Median” value (healthy adult subjects; 0.7 mg for 21 days) was −6.00 mmHg and the “Minimum post-dose Diastolic BP, Change from Baseline Min, Max” value (healthy adult subjects; 0.7 mg for 21 days) was −16.00 to 2.00 mmHg. The “Minimum post-dose Diastolic BP … (SD)” value (healthy adult subjects; 0.7 mg for 21 days) was 56.00 (8.31) mmHg, the “Minimum post-dose Heart Rate, Change from Baseline Mean” value (healthy adult subjects; 0.7 mg for 21 days) was −5.50 BPM and the “Minimum post-dose Heart Rate, Change from Baseline Median” value (healthy adult subjects; 0.7 mg for 21 days) was −5.00 BPM. The “Minimum post-dose Heart Rate, Change from Baseline Min, Max” value (healthy adult subjects; 0.7 mg for 21 days) was −12.00 to −1.00 BPM, the “Minimum post-dose Heart Rate … (SD)” value (healthy adult subjects; 0.7 mg for 21 days) was 54.20 (4.05) BPM and the “Minimum post-dose Systolic BP, Change from Baseline Mean” value (healthy adult subjects; 0.7 mg for 21 days) was −9.70 mmHg. For the same compound, the “Minimum post-dose Systolic BP, Change from Baseline Median” value (healthy adult subjects; 0.7 mg for 21 days) was −9.50 mmHg.
